Test results published in US10538555B2, “Macrocyclic inhibitors of the PD-1/PD-L1 and CD80(B7-1)/PD-L1 protein/protein interactions” (BRISTOL-MYERS SQUIBB COMPANY, priority 2014, dated 2020).
*1 amine or outer side, *2 acyl side, *3 side chain or, on linkers, in order; H or OH if unused. Where a SMILES comes first, the peptide text is derived from it. Bridges are numbered along the chain shown (N, C = ends). [ ]: non-standard residue; d: D form. ξ: configuration not given here. Trp(1-CH2COOH) = N[C@@H](Cc1cn(CC(=O)O)c2ccccc12)C(=O)O; Lac(3-(indol-3-yl)) = O=C(O)[C@@H](O)Cc1c[nH]c2ccccc12; Phe(3,4,5-F3) = N[C@@H](Cc1cc(F)c(F)c(F)c1)C(=O)O; Morpholine(3S-CO) = O=C(O)[C@@H]1COCCN1; Phe(4-F) = N[C@@H](Cc1ccc(F)cc1)C(=O)O; d(cisHyp) = O=C(O)[C@H]1C[C@@H](O)CN1; Bta = N[C@@H](Cc1csc2ccccc12)C(=O)O; NMeY = CN[C@@H](Cc1ccc(O)cc1)C(=O)O; Hyp = O=C(O)[C@@H]1C[C@@H](O)CN1; NMeF = CN[C@@H](Cc1ccccc1)C(=O)O; X1 = O=C([C@H]1COCCN1[*:1])[*:2]; NMeNle = CCCC[C@H](NC)C(=O)O; dNle = CCCC[C@@H](N)C(=O)O; dPip = O=C(O)[C@H]1CCCCN1; hSer = N[C@@H](CCO)C(=O)O; NMeA = CN[C@@H](C)C(=O)O; Orn = NCCC[C@H](N)C(=O)O; dThz = O=C(O)[C@H]1CSCN1; Dab = NCC[C@H](N)C(=O)O; Dap = NC[C@H](N)C(=O)O; ξC = NC(CS)C(=O)O; Sar = CNCC(=O)O

What follows are compounds tested against T1, Human PD-L1/PD-1 (Homo sapiens, UniProt Q9NZQ7) (assay: HTRF Human PD-L1/PD-1 binding assay (PD-1-Ig/PD-L1-His)). Conditions: PD-L1-His 10 nM, PD-1-Ig 20 nM; class symbol; read-out: HTRF Human PD-L1/PD-1 Binding Assay IC50 Range.
T1 construct: TVMV protease cleavage site (C); made in house; host or cells: HEK293T cells
Procedure, shortened: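 Inhibitors were preincubated 15 min with human PD-L1(18-239)-His (10 nM final), then PD-1(25-167)-Ig (20 nM final) was added for 15 min in dPBS/0.1% BSA/0.05% Tween-20. Eu-cryptate anti-Ig (1 nM) and APC anti-His (20 nM) were added; 665/620 nm ratio read after 30 min.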

T1 sequence (Q9NZQ7 with tags, fused parts or gaps): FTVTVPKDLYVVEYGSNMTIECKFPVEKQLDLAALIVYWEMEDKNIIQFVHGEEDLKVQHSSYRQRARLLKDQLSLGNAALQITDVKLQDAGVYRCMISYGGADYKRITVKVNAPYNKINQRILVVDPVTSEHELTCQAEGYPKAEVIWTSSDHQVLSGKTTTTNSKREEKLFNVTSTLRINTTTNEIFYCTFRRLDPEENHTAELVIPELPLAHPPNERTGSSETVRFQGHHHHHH

Row | Compound | IC50
1 | CCCC[C@H]1C(=O)N2CCOC[C@@H]2C(=O)N[C@@H](CC(=O)O)C(=O)N[C@@H](C(C)C)C(=O)N(C)[C@@H](Cc2ccccc2)C(=O)N[C@@H](CCCN)C(=O)N2C[C@H](O)C[C@@H]2C(=O)N[C@@H](Cc2c[nH]c3ccccc23)C(=O)N[C@@H](Cc2ccc(O)cc2)C(=O)N[C@@H](CCOC)C(=O)N[C@H](C(=O)NCC(N)=O)CSCC(=O)N[C@@H](Cc2cc(F)c(F)c(F)c2)C(=O)N(C)[C@@H](Cc2ccccc2)C(=O)N1C [Example 10184] ({CH2CO}-[Phe(3,4,5-F3)][NMeF][NMeNle][X1]DV[NMeF][Orn][d(cisHyp)]WY[hSer](Me)CG-NH2; thioether N-13) | 10 to 99.9 nM
2 | CCCC[C@H]1C(=O)N[C@@H](CCC(N)=O)C(=O)N2CCC[C@@H]2C(=O)N[C@@H](Cc2c[nH]c3ccccc23)C(=O)N[C@@H](Cc2ccc(O)cc2)C(=O)N[C@@H](CC(C)C)C(=O)N[C@H](C(=O)NCC(N)=O)CSCC(=O)N[C@@H](Cc2ccc(F)cc2)C(=O)N(C)[C@@H](Cc2ccccc2)C(=O)N(C)[C@@H](CCCC)C(=O)N2CCC[C@@H]2C(=O)N[C@@H](CC(=O)O)C(=O)N[C@@H](C(C)C)C(=O)N1C [Example 9215] ({CH2CO}-[Phe(4-F)][NMeF][NMeNle][dP]DV[NMeNle]Q[dP]WYLCG-NH2; thioether N-13) | 10 to 99.9 nM
3 | CCCC[C@H]1C(=O)N2CCC[C@@H]2C(=O)N2CCOC[C@H]2C(=O)N[C@@H](C(C)C)C(=O)N(C)[C@@H](Cc2ccccc2)C(=O)N[C@@H](Cc2ccc(O)cc2)C(=O)N2CCCC[C@@H]2C(=O)N[C@@H](Cc2c[nH]c3ccccc23)C(=O)N[C@@H](Cc2ccc(O)cc2)C(=O)N[C@@H](CC(C)C)C(=O)N[C@H](C(=O)NCC(N)=O)CSCC(=O)N[C@@H](Cc2cc(F)c(F)c(F)c2)C(=O)N(C)[C@@H](Cc2ccccc2)C(=O)N1C [Example 3219] ({CH2CO}-[Phe(3,4,5-F3)][NMeF][NMeNle][dP][Morpholine(3S-CO)]V[NMeF]Y[dPip]WYLCG-NH2; thioether N-13) | 10 to 99.9 nM
4 | CCCC[C@H]1C(=O)N(C)[C@@H](CCCC)C(=O)N[C@@H](C)C(=O)N[C@H](C(=O)NCC(N)=O)CSCC(=O)N[C@@H](Cc2ccc(O)cc2)C(=O)N(C)[C@@H](C)C(=O)N[C@@H](CC(N)=O)C(=O)N2CCC[C@H]2C(=O)N[C@@H](Cc2cnc[nH]2)C(=O)N[C@@H](CCN)C(=O)N2C[C@H](O)C[C@H]2C(=O)N[C@@H](Cc2c[nH]c3ccccc23)C(=O)N[C@@H](CO)C(=O)N[C@@H](Cc2c[nH]c3ccccc23)C(=O)N1C [Example 1245] | 10 to 99.9 nM
5 | CCCC[C@H]1C(=O)N2C[C@H](O)C[C@@H]2C(=O)N[C@@H](CC(=O)O)C(=O)N[C@@H](C(C)C)C(=O)N(C)[C@@H](Cc2ccccc2)C(=O)N[C@@H](Cc2ccc(O)cc2)C(=O)N2C[C@H](O)C[C@@H]2C(=O)N[C@@H](Cc2c[nH]c3ccccc23)C(=O)N[C@@H](Cc2ccc(O)cc2)C(=O)N[C@@H](CCN)C(=O)N[C@H](C(=O)NCC(N)=O)CSCC(=O)N[C@@H](Cc2cc(F)c(F)c(F)c2)C(=O)N(C)[C@@H](Cc2ccccc2)C(=O)N1C [Example 9324] ({CH2CO}-[Phe(3,4,5-F3)][NMeF][NMeNle][d(cisHyp)]DV[NMeF]Y[d(cisHyp)]WY[Dab]CG-NH2; thioether N-13) | 1 to 9.9 nM
6 | CCCC[C@H]1C(=O)N2CCC[C@@H]2C(=O)N[C@@H](CC(=O)O)C(=O)N[C@@H](C(C)C)C(=O)N(C)[C@@H](Cc2ccccc2)C(=O)N[C@@H](CCC(=O)O)C(=O)N2CCOC[C@@H]2C(=O)N[C@@H](Cc2c[nH]c3ccccc23)C(=O)N[C@@H](Cc2ccc(O)cc2)C(=O)N[C@@H](CC(C)C)C(=O)N[C@H](C(=O)NCC(N)=O)CSCC(=O)N[C@@H](Cc2cc(F)c(F)c(F)c2)C(=O)N(C)[C@@H](Cc2ccc(O)cc2)C(=O)N1C [Example 10615] ({CH2CO}-[Phe(3,4,5-F3)][NMeY][NMeNle][dP]DV[NMeF]E[X1]WYLCG-NH2; thioether N-13) | 10 to 99.9 nM

Next, values leading:

Row | IC50 | Compound
7 | 1 to 9.9 nM | CCCC[C@H]1C(=O)N(C)[C@@H](CCCC)C(=O)N[C@@H](CC(C)C)C(=O)N[C@H](C(=O)NCC(N)=O)CSCC(=O)N[C@@H](Cc2ccc(O)cc2)C(=O)N(C)[C@@H](C)C(=O)N[C@@H](CC(=O)O)C(=O)N2CCC[C@H]2C(=O)N[C@@H](Cc2cnc[nH]2)C(=O)N[C@@H](CCC(=O)O)C(=O)N2C[C@H](O)C[C@H]2C(=O)N[C@@H](Cc2c[nH]c3ccccc23)C(=O)N[C@@H](CO)C(=O)N[C@@H](Cc2cn(CC(=O)O)c3ccccc23)C(=O)N1C [Example 6276] ({CH2CO}-Y[NMeA]DPHE[Hyp]WS[Trp(1-CH2COOH)][NMeNle][NMeNle]LCG-NH2; thioether N-14)
8 | 1000 to 10000 nM | CCCC[C@H]1NC(=O)[C@H](Cc2csc3ccccc23)NC(=O)[C@H](CO)NC(=O)[C@H](Cc2c[nH]c3ccccc23)OC(=O)[C@@H]2CCCN2C(=O)[C@H](CC(C)C)NC(=O)[C@H](Cc2cnc[nH]2)NC(=O)[C@@H]2CCCN2C(=O)[C@H](CC(N)=O)NC(=O)[C@H](C)N(C)C(=O)[C@H](Cc2ccc(O)cc2)NC(=O)CSCC(C(=O)NCC(N)=O)NC(=O)[C@H](CCCNC(=N)N)NC(=O)[C@H](CCCC)N(C)C1=O (stereo partly drawn) [Example 10122] ({CH2CO}-Y[NMeA]NPHLP[Lac(3-(indol-3-yl))]S[Bta][dNle][NMeNle]R[ξC]G-NH2; thioether N-14)
9 | 1 to 9.9 nM | CCCC[C@H]1C(=O)N(C)[C@@H](CCCC)C(=O)N[C@@H](CCCN)C(=O)NC(C(=O)NCC(N)=O)CSCC(=O)N[C@@H](Cc2ccc(O)cc2)C(=O)N(C)[C@@H](C)C(=O)N[C@@H](CC(N)=O)C(=O)N2CCC[C@H]2C(=O)N[C@@H](CC(N)=O)C(=O)N[C@@H](CC(C)C)C(=O)N2CCC[C@H]2C(=O)N[C@@H](Cc2c[nH]c3ccccc23)C(=O)N[C@@H](CO)C(=O)N[C@@H](Cc2csc3ccccc23)C(=O)N1C (stereo partly drawn) [Example 9156] ({CH2CO}-Y[NMeA]NPNLPWS[Bta][NMeNle][NMeNle][Orn][ξC]G-NH2; thioether N-14)
10 | 1000 to 10000 nM | CCCC[C@H]1C(=O)N(C)[C@@H](CCCC)C(=O)N(C)CC(=O)N[C@H](C(=O)NCC(N)=O)CSCC(=O)N[C@@H](Cc2ccc(O)cc2)C(=O)N(C)[C@@H](C)C(=O)N[C@@H](CC(N)=O)C(=O)N2CCC[C@H]2C(=O)N[C@@H](Cc2c[nH]cn2)C(=O)N[C@@H](CCC(N)=O)C(=O)N2C[C@H](O)C[C@H]2C(=O)N[C@@H](Cc2c[nH]c3ccccc23)C(=O)N[C@@H](CO)C(=O)N[C@@H](Cc2c[nH]c3ccccc23)C(=O)N1C [Example 5263] ({CH2CO}-Y[NMeA]NPHQ[Hyp]WSW[NMeNle][NMeNle][Sar]CG-NH2; thioether N-14)
11 | 1 to 9.9 nM | CCCC[C@H]1C(=O)N(C)[C@@H](CCCC)C(=O)N[C@@H](CN)C(=O)N[C@H](C(=O)NCC(N)=O)CSCC(=O)N[C@@H](Cc2ccc(O)cc2)C(=O)N(C)[C@@H](C)C(=O)N[C@@H](CC(N)=O)C(=O)N2CCC[C@H]2C(=O)N[C@@H](CN)C(=O)N[C@@H](CCC(N)=O)C(=O)N2C[C@H](O)C[C@H]2C(=O)N[C@@H](Cc2c[nH]c3ccccc23)C(=O)N[C@@H](CO)C(=O)N[C@@H](Cc2cn(CC(=O)O)c3ccccc23)C(=O)N1C [Example 5253] ({CH2CO}-Y[NMeA]NP[Dap]Q[Hyp]WS[Trp(1-CH2COOH)][NMeNle][NMeNle][Dap]CG-NH2; thioether N-14)
12 | 100 to 990 nM | CCCC[C@H]1C(=O)N(C)[C@@H](CCCC)C(=O)N[C@@H](CCC(=O)O)C(=O)NC(C(=O)NCC(N)=O)CSCC(=O)N[C@@H](Cc2ccc(O)cc2)C(=O)N(C)[C@@H](C)C(=O)N[C@@H](CC(N)=O)C(=O)N2CCC[C@H]2C(=O)N[C@@H](Cc2c[nH]cn2)C(=O)N[C@@H](CC(N)=O)C(=O)N2CCC[C@H]2C(=O)N[C@@H](Cc2c[nH]c3ccccc23)C(=O)N[C@@H](CC(=O)O)C(=O)N[C@@H](Cc2c[nH]c3ccccc23)C(=O)N1C (stereo partly drawn) [Example 9174] ({CH2CO}-Y[NMeA]NPHNPWDW[NMeNle][NMeNle]E[ξC]G-NH2; thioether N-14)
13 | 1 to 9.9 nM | CCCC[C@H]1C(=O)N(C)[C@@H](CCCC)C(=O)N[C@@H](CC(C)C)C(=O)N[C@H](C(=O)NCC(N)=O)CSCC(=O)N[C@@H](Cc2ccc(O)cc2)C(=O)N(C)[C@@H](C)C(=O)N[C@@H](CC(=O)O)C(=O)N2CCC[C@H]2C(=O)N[C@@H](Cc2cnc[nH]2)C(=O)N[C@@H](CCCCN)C(=O)N2C[C@H](O)C[C@H]2C(=O)N[C@@H](Cc2c[nH]c3ccccc23)C(=O)N[C@@H](CCCCN)C(=O)N[C@@H](Cc2cn(CC(=O)O)c3ccccc23)C(=O)N1C [Example 6156] ({CH2CO}-Y[NMeA]DPHK[Hyp]WK[Trp(1-CH2COOH)][NMeNle][NMeNle]LCG-NH2; thioether N-14)
14 | 1 to 9.9 nM | CCCC[C@H]1C(=O)N2C[C@H](O)C[C@@H]2C(=O)N[C@@H](CC(=O)O)C(=O)N[C@@H](C(C)C)C(=O)N(C)[C@@H](Cc2ccccc2)C(=O)N[C@@H](CC(N)=O)C(=O)N2C[C@H](O)C[C@@H]2C(=O)N[C@@H](Cc2c[nH]c3ccccc23)C(=O)N[C@@H](Cc2ccc(O)cc2)C(=O)N[C@@H](CCCN)C(=O)N[C@H](C(=O)NCC(N)=O)CSCC(=O)N[C@@H](Cc2cc(F)c(F)c(F)c2)C(=O)N(C)[C@@H](Cc2ccccc2)C(=O)N1C [Example 9363] ({CH2CO}-[Phe(3,4,5-F3)][NMeF][NMeNle][d(cisHyp)]DV[NMeF]N[d(cisHyp)]WY[Orn]CG-NH2; thioether N-13)
15 | 10 to 99.9 nM | CCCC[C@H]1C(=O)N2CSC[C@@H]2C(=O)N[C@@H](CN)C(=O)N[C@@H](C(C)C)C(=O)N(C)[C@@H](Cc2ccccc2)C(=O)N[C@@H](Cc2ccc(O)cc2)C(=O)N2CCC[C@@H]2C(=O)N[C@@H](Cc2c[nH]c3ccccc23)C(=O)N[C@@H](Cc2ccc(O)cc2)C(=O)N[C@@H](CC(C)C)C(=O)N[C@H](C(=O)NCC(N)=O)CSCC(=O)N[C@@H](Cc2ccccc2)C(=O)N(C)[C@@H](Cc2ccccc2)C(=O)N1C [Example 10075] ({CH2CO}-F[NMeF][NMeNle][dThz][Dap]V[NMeF]Y[dP]WYLCG-NH2; thioether N-13)
